We go through 2 molecules from patent publication US20160271157A1, “BETA-CATENIN” (UCL BUSINESS PLC, priority 2013, published 2016).

Assay [1] concerns Wnt induced calcium release. Put plainly: Wnt induced [Ca2+]i release after preincubation with thapsigargin or membrane potential regulating compounds. It counts as cell-based. The following applies: PC3 cells, thapsigargin 5 μM for 15 min; Wnt5A 100 ng/ml, Wnt9B 200 ng/ml, Wnt10B 200 ng/ml. As to the method: The imaging protocol was developed in the inventor's laboratory and has been described in detail, elsewhere (Wang at al., (2010) PLoS ONE 5, e10456). Briefly, 100000-200000 PC3, MCF7, 253J or Cos 7 cells were plated on 35 mm FluoroDish (WPI) and grown for 48 h; calcium indicators Fluo-4 (Invitrogen) and FuraRed (Invitrogen) at 1 ng/ml were added to FluoroDish containing only 1 ml of culture medium and incubated for 15-20 min at 37° C. The culture medium was removed and washed (×2) and replaced with 1 ml PBS. Live cell calcium Imaging was performed on an Olympus FluoView FV 1000 confocal microscope (Olympus KeyMed) equipped with a 20× dry objective (numerical aperture=0.75). Calcium indicators were excited with an argon laser line (488 nm) and emissions recorded in the green channel (500-560 nm) for Fluo-4 and red channel (600-700 nm) for FuraRed after addition of vehicle control (PBS) or Wnt X (30-600 ng/ml). Images were acquired every 1.1 or 2.2 seconds for up to 600-800s; image and data acquisition was performed using FluoView 1000 software (Olympus, UK). Fluorescent intensity was measured and data exported as a tab delimited file for further analysis using a spreadsheet. All imaging experiments were performed in duplicate; intracellular calcium at 100 ng/ml was measured in at least 3-12 different passages (passage numbers 25 to 37) of cell line for each Wnt ligand. Wnt 11 was tested in at least 5 different passages at 3 different concentrations. […]
To measure the effect of changes in membrane potential on [Ca^2+]i release using the protocol described above, in some experiments, external solution (PBS) was substituted with varying concentrations of KCl. In other experiments chemical inhibitors of K^+ channels such as TEA, CsCl or tolbutamide (Sigma-Aldrich) were added to the cells grown on FluoroDish, at 37° C., at least 5 min prior to addition of Wnt ligands.
After image acquisition, regions of interest (ROI) were drawn over individual PC3 cells (up to 25) in a single frame and calcium intensity measurements were made using FluoView 1000 software (Olympus, UK). The measurements were exported as a tab delimited file into a spreadsheet for further analysis and Fluo4/Fura Red ratios were calculated. The waveform, a product of the ratio of Fluo4 and FuraRed over the period of measurement was used to measure the kinetics of the activation of [Ca^2+]i release in PC3 cells, in response to different Wnt ligands. The time constants (rise, dwell and fall times) were calculated by first fitting the Fluo4/FuraRed ratio to a single Gaussian function (Origin Lab Corp., MA); a lower (10%) and upper (90%) amplitude thresholding method was then used to calculate the time constants (s). Statistical significance was calculated using Mann Whitney U test.

The test system of assay [2] is Cos7 simian kidney cell line. Put plainly: Live [Ca2+]i imaging after addition of Wnt ligand, Cos7. It is filed as cell-based. The note with it: Cos7 cells. As to the method: The imaging protocol was developed in the inventor's laboratory and has been described in detail, elsewhere (Wang at al., (2010) PLoS ONE 5, e10456). Briefly, 100000-200000 PC3, MCF7, 253J or Cos 7 cells were plated on 35 mm FluoroDish (WPI) and grown for 48 h; calcium indicators Fluo-4 (Invitrogen) and FuraRed (Invitrogen) at 1 ng/ml were added to FluoroDish containing only 1 ml of culture medium and incubated for 15-20 min at 37° C. The culture medium was removed and washed (×2) and replaced with 1 ml PBS. Live cell calcium Imaging was performed on an Olympus FluoView FV 1000 confocal microscope (Olympus […]) equipped with a 20× dry objective (numerical aperture=0.75). Calcium indicators were excited with an argon laser line (488 nm) and emissions recorded in the green channel (500-560 nm) for Fluo-4 and red channel (600-700 nm) for FuraRed after addition of vehicle control (PBS) or Wnt X (30-600 ng/ml). […] Fluorescent intensity was measured and data exported as a tab delimited file for further analysis using a spreadsheet. All imaging experiments were performed in duplicate; intracellular calcium at 100 ng/ml was measured in at least 3-12 different passages (passage numbers 25 to 37) of cell line for each Wnt ligand. […] The measurements were exported as a tab delimited file into a spreadsheet for further analysis and Fluo4/Fura Red ratios were calculated. […]

As to `C/C=C(/C)C(=O)O[C@H]1C(C)=C2[C@H]([C@@H]1OC(=O)CCCCCCC)[C@@](C)(OC(C)=O)C[C@H](OC(=O)CCC)[C@@]1(O)[C@H]2OC(=O)[C@@]1(C)O` [thapsigargin, reference compound], the “increase in [Ca2+]i in response to Wnt ligands (5A, 9B and 10B) after thapsigargin” value in assay [1] is “abolished”.

B1: Wnt5A: Recombinant Wnt peptide purchased from R&D systems (protein, UniProt P41221 62-380, looked up)
Protein Wnt-5a: IIGAQPLCSQLAGLSQGQKKLCHLYQDHMQYIGEGAKTGIKECQYQFRHRRWNCSTVDNTSVFGRVMQIGSRETAFTYAVSAAGVVNAMSRACREGELSTCGCSRAARPKDLPRDWLWGGCGDNIDYGYRFAKEFVDARERERIHAKGSYESARILMNLHNNEAGRRTVYNLADVACKCHGVSGSCSLKTCWLQLADFRKVGDALKEKYDSAAAMRLNSRGKLVQVNSRFNSPTTQDLVYIDPSPDYCVRNESTGSLGTQGRLCNKTSEGMDGCELMCCGRGYDQFKTVQTERCHCKFHWCCYVKCKKCTEIVDQFVCK
In the case of B1, in assay [2], the “[Ca2+]i activation in response to Wnt ligand” value was “activated [Ca^2+]i”.
